Source: patent US11685726B2, “Pharmaceutical compositions of 6-(2-(2H-tetrazol-5-yl)ethyl)-6-fluorodecahydroisoquinoline-3-carboxylic acid and ester derivatives thereof” (Sea Pharmaceuticals LLC, priority 2020, dated 2023)

Test system: 6 Hz psychomotor seizure model in mice
Test: 6 Hz psychomotor seizure model in mice
Format: in vivo, mouse
Conditions: 0.5 hours, SPHA
From the text: Adult male Carworth Farms (CF-1) mice (25-35 g) or young male Sprague-Dawley (SD) rats (100-150 g) were obtained from Charles River Laboratories Inc (Wilmington Mass. USA). CF1 mice were typically used for the 6 Hz psychomotor seizure model (6 Hz model described in the section below) but could also be used for the Maximal electroshock seizure (MES) model if performed in mice (Maximal electroshock seizure model described in the section below). SD rats were typically used for MES model but could also be used for 6 Hz psychomotor model if performed in rats. Animals were allowed free access to food and water, except during testing periods. After delivery from supplier lab to the in vivo pharmacology testing lab, animals were allowed sufficient time to acclimate to housing conditions prior to testing. Animals were housed in plastic cages in rooms with controlled humidity, ventilation, and lighting (12 hours lights on and 12 hours darkness). The animals were housed and fed in a manner consistent with the recommendations in the “Guide for Care and Use of Laboratory Animals” (National Research Council), and in accordance with guidelines set by an Institutional Animal Care and Use Committee (IACUC). Animal experiments were conducted in a manner consistent with Animal Research: Reporting of In Vivo Experiments (ARRIVE) guidelines (UK) and were approved by an IACUC. Test compounds or respective vehicle (placebo) were administered using an optimal fluid volume-to-body fluid ratio. Solutions or suspensions of test compounds, reference compounds or vehicles were administered to mice or rats in a volume of 0.01 mL/g body weight (mice) or 0.004 mL/g body weight (rats) by subcutaneous (s.c.) injection, intraperitoneal (i.p.) injection or by oral gavage (p.o.) unless otherwise indicated. Reference drug Levetiracetam or vehicle was administered by intraperitoneal (i.p.) injection.
Mice are given a topical anesthetic on the cornea of each eye prior to placement of corneal electrodes. 6 Hz psychomotor seizures were induced in mice (usually 8 animals per group) using electrical stimulation via corneal electrodes (6 Hz, 0.2 millisecond rectangular pulse, 3 second duration at 22 mA using a Grass 48 stimulator instrument as described in Barton M E et al 2001. Epilepsy Res 47:217-227). Prior to placement of corneal electrodes for electrical stimulation 0.5% tetracaine in saline (Sigma) drops were applied to each eye. Seizures and behaviors that arise from the electrical stimulus in the 6 Hz model include a minor clonic seizure phase followed by stereotyped automatistic behaviors including stun, forelimb clonus, twitching of the vibrissae and Straub-tail. […] Animals not presenting any of these behaviors were considered “protected” from seizures. This serves as a screen for in vivo pharmacological activity of test articles or reference anti-epilepsy drugs and defines anti-seizure activity as shown in several publications [Barton M E et al. 2001. Epilepsy Res. 47:217-227; Barton M E et al. 2003 Epilepsy Res. 56:17-26; Brown W C et al. 1953. J Pharmacol Exp Ther 107:273-283. Metcalf C S et al. 2017a. Epilepsia 58:484-493.; Metcalf C S et al. 2017c. Epilepsia 58:239-246.
Unless otherwise indicated pretreatment times of mice or rats were typically 0.5 hours for respective vehicle, Compounds 1, 3, 4, 6 or other compounds administered by subcutaneous or intraperitoneal route (unless other times indicated). A pretreatment time of 1 hour was used for Compounds 3, 4, 6 or other compounds administered by oral route unless other times indicated. Test compounds or respective vehicles were tested in some cases at other pretreatment times as indicated. A median effective dose (ED50) and 95% confidence interval (CI) were calculated using a Prism (Graphpad software). […]

O=C(O)[C@@H]1C[C@H]2C[C@@](F)(CCc3nnn[nH]3)CC[C@H]2CN1 [Compound 1, (3S,4aS,6S,8aR)-6-fluoro-6-[2-(1H-1,2,3,4-tetrazol-5-yl)ethyl]-decahydroisoquinoline-3-carboxylic acid]
6 Hz Test Results (# mice protected from seizure/# mice tested) (0.3 mg/kg s.c.): 1/8
6 Hz Test Results (# mice protected from seizure/# mice tested) (0.6 mg/kg s.c.): 3/8
6 Hz Test Results (# mice protected from seizure/# mice tested) (1 mg/kg s.c.): 3/8
6 Hz Test Results (# mice protected from seizure/# mice tested) (3 mg/kg s.c.): 5/8
6 Hz Test Results (# mice protected from seizure/# mice tested) (6 mg/kg s.c.): 7/8
6 Hz Test Results (# mice protected from seizure/# mice tested) (10 mg/kg s.c.): 8/8
